According to article PMC11024197 (Nature Communications, 2024):
Read-outs that look alike come from different tables or passages of the source.

Columns and labels:
[1] = molecular target: T1, PEX14 NTD (Homo sapiens, UniProt O75381); set-up: method as in values quoted from other papers; conditions: cited from earlier work
T1 construct: PEX14 NTD (1-104), expressed in E. coli with His6-SUMO tag, cleaved

[2] = molecular target: T1, PEX14 NTD; conditions: SD, n = 3; read-out: KD (µM) (Suppl. Table 2); KD (nM) (Suppl. Table 4)
Experimental: Isothermal titration calorimetry (ITC) measurements were performed as triplicates at 25 °C using a MicroCal PEAQ-ITC (Malvern Instruments Ltd. U.K) calorimeter. Buffer conditions were 20 mM Tris pH 7.5, 50 mM NaCl. For all titrations a titrant dilution control experiment was performed and subtracted before the data were fitted to a one-site binding model using the Malvern Analysis software.
PEX13 SH3 at a concentration of 35-48 µM was titrated with purchased 15mer peptides containing (di)aromatic penta peptides from PEX5 or PEX5 1-76 (W0) at concentration of 0.7-0.6 mM and PEX13 350-403 (FxxxF) at a concentration of 0.9-1 mM. […] The concentration of PEX14 was corrected with the fit, since it cannot be accurate measured at 280 nm owing to the extinction coefficient of only 1490.

T1 sequence (O75381 1-104): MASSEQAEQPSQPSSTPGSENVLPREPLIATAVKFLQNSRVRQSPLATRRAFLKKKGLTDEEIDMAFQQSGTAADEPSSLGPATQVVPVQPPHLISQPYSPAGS

Substance	Kd [1]	Kd [2]
PEX19 FxxxF motif (66-77 SQEKFFQELFDS in Fig. 3b; exact ligand of cited work not printed)	9.2 µM	–
PEX5 1-76 (contains […]) [PEX5 W0]	–	0.0551 µM
PEX13 residues 261-403 [PEX13 SH3-CTR]	–	5.4 µM
